# According to patent publication US10316017B2, “COT modulators and methods of use thereof” (Gilead Sciences, Inc., priority 2015, dated 2019):
# Experiments:
# [1] = tested on: TNFα production in LPS-stimulated human monocytes; experiment: Cot Monocyte TNFα Cell Based Assay; conditions: Homo sapiens, Monocyte, TNFα in LPS-stimulated human monocytes; read-out: EC50 TNF
# Summary of the method: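 Human monocytes (5,000 cells/well) pretreated with compound for 1 hour at 37° C (0.5% DMSO), then stimulated with 50 pg/ml LPS for 4 hours. Total TNFα measured by TR-FRET after overnight antibody incubation at room temp, expressed as percent of control between unstimulated and stimulated cells.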
# [2] = molecular target: T1, human Cot catalytic domain (30-397 amino acids) (Homo sapiens, UniProt P41279); experiment: High Throughput Cot Biochemical Assay (KinEASE TR-FRET); conditions: Cot biochemical HTRF (KinEASE TR-FRET) assay; read-out: IC50 HTRF
# T1 construct: Purified recombinant human Cot catalytic domain (30-397 amino acids) was purchased from Cama Biosciences; purchased Cama Biosciences (so in the source)
# T1 sequence (P41279 30-397): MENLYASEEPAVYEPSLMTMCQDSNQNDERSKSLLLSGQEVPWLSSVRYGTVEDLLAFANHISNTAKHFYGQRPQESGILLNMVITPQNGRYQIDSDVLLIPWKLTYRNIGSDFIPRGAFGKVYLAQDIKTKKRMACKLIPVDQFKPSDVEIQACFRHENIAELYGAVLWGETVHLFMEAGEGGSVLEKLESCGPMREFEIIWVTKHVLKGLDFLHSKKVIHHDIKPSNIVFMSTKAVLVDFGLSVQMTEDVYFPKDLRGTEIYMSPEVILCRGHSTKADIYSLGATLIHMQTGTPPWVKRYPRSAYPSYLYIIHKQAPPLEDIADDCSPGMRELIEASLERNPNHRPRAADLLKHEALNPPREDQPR
# Summary of the method: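 Recombinant human Cot catalytic domain (aa 30-397), 5 nM, with 1 μM STK3 peptide and 400 μM ATP in MOPS pH 7.0 buffer with MgOAc, DTT, BSA, NP-40, glycerol, 0.1% DMSO. Phosphorylated XL665-peptide detected by Eu-[…] antibody TR-FRET.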
Structure (SMILES),EC50 [1] [µM],IC50 [2] [µM]
"CC(C)(C)N1CCC(n2cc([C@@H](Nc3cc(Cl)c4ncc(C#N)c(Nc5ccc(F)c(Cl)c5)c4c3)c3cccc(C(=O)N4CCCCC4)c3)nn2)CC1 [Example 676, (S)-6-(((1-(1-(tert-butyl)piperidin-4-yl)-1H-1,2,3-triazol-4-yl)(3-(piperidine-1-carbonyl)phenyl)methyl)amino)-8-chloro-4-((3-chloro-4-fluorophenyl)amino)quinoline-3-carbonitrile]",0.434,0.006
"CC[C@@H](Nc1c(C#N)cnc2c(Cl)cc(N[C@@H](c3ccc(Cl)cc3)c3cn(C4CCN(C(C)(C)C)CC4)nn3)cc12)c1ccccc1 [Example 677, 6-(((S)-(1-(1-(tert-butyl)piperidin-4-yl)-1H-1,2,3-triazol-4-yl)(4-chlorophenyl)methyl)amino)-8-chloro-4-(((R)-1-phenylpropyl)amino)quinoline-3-carbonitrile]",0.809,0.01
"Cc1cccc(CNc2c(C#N)cnc3c(Cl)cc(N[C@@H](c4ccc(Cl)cc4)c4cn(C5CCN(C(C)(C)C)CC5)nn4)cc23)c1 [Example 679, (S)-6-(((1-(1-(tert-butyl)piperidin-4-yl)-1H-1,2,3-triazol-4-yl)(4-chlorophenyl)methyl)amino)-8-chloro-4-((3-methylbenzyl)amino)quinoline-3-carbonitrile]",12.5,0.355
"CC(C)(C)N1CCC(n2cc([C@@H](Nc3cc(Cl)c4ncc(C#N)c(NCCCc5ccccc5)c4c3)c3ccc(Cl)cc3)nn2)CC1 [Example 681, (S)-6-(((1-(1-(tert-butyl)piperidin-4-yl)-1H-1,2,3-triazol-4-yl)(4-chlorophenyl)methyl)amino)-8-chloro-4-((3-phenylpropyl)amino)quinoline-3-carbonitrile]",12.8,0.434
"CC(C)Nc1c(C#N)cnc2c(Cl)cc(N[C@@H](c3ccc(Cl)cc3)c3cn(C4CCN(C(C)(C)C)CC4)nn3)cc12 [Example 682, (S)-6-(((1-(1-(tert-butyl)piperidin-4-yl)-1H-1,2,3-triazol-4-yl)(4-chlorophenyl)methyl)amino)-8-chloro-4-(isopropylamino)quinoline-3-carbonitrile]",15.7,0.599
"CN(C)Cc1ccc(Nc2c(C#N)cnc3c(Cl)cc(N[C@@H](c4ccc(Cl)cc4)c4cn(C5CCN(C(C)(C)C)CC5)nn4)cc23)cc1 [Example 684, (S)-6-(((1-(1-(tert-butyl)piperidin-4-yl)-1H-1,2,3-triazol-4-yl)(4-chlorophenyl)methyl)amino)-8-chloro-4-((4-((dimethylamino)methyl)phenyl)amino)quinoline-3-carbonitrile]",6.04,7.35

# Continued by falling EC50 [1], values first:
EC50 [1] [µM],IC50 [2] [µM],Structure (SMILES)
7.25,0.165,"CCCCNc1c(C#N)cnc2c(Cl)cc(N[C@@H](c3ccc(Cl)cc3)c3cn(C4CCN(C(C)(C)C)CC4)nn3)cc12 [Example 683, (S)-6-(((1-(1-(tert-butyl)piperidin-4-yl)-1H-1,2,3-triazol-4-yl)(4-chlorophenyl)methyl)amino)-4-(butylamino)-8-chloroquinoline-3-carbonitrile]"
6.75,0.044,"Cc1ccccc1CNc1c(C#N)cnc2c(Cl)cc(N[C@@H](c3ccc(Cl)cc3)c3cn(C4CCN(C(C)(C)C)CC4)nn3)cc12 [Example 680, (S)-6-(((1-(1-(tert-butyl)piperidin-4-yl)-1H-1,2,3-triazol-4-yl)(4-chlorophenyl)methyl)amino)-8-chloro-4-((2-methylbenzyl)amino)quinoline-3-carbonitrile]"
5.69,1.43,"Cc1ccc(CNc2c(C#N)cnc3c(Cl)cc(N[C@@H](c4ccc(Cl)cc4)c4cn(C5CCN(C(C)(C)C)CC5)nn4)cc23)cc1 [Example 678, (S)-6-(((1-(1-(tert-butyl)piperidin-4-yl)-1H-1,2,3-triazol-4-yl)(4-chlorophenyl)methyl)amino)-8-chloro-4-((4-methylbenzyl)amino)quinoline-3-carbonitrile]"
